How the values were obtained:
Test in all cases: MIC, CLSI broth microdilution
Assay type in all cases: cell-based
[1] = test system: A. baumannii AABA1009 (Fluoroquinolone-resistant); details: Table 2
Method: (§1) Minimum inhibitory concentrations (MIC) were determined by reference Clinical and Laboratory Standards Institute (CLSI) broth microdilution methods per M7-A7 [2006]. Quality control ranges utilizing E. coli ATCC 25922, P. aeruginosa ATCC 27853 and S. aureus ATCC 29213, and interpretive criteria for comparator agents were as published in CLSI M100-S17 [2007]. Briefly, serial two-fold dilutions of the test compounds were prepared at 2× concentration in Mueller Hinton Broth. The compound dilutions were mixed in 96-well assay plates in a 1:1 ratio with bacterial inoculum. The inoculum was prepared by suspension of a colony from an agar plate that was prepared the previous day. Bacteria were suspended in sterile saline and added to each assay plate to obtain a final concentration of 5×10^5 CFU/mL. The plates were incubated at 35° C. for 20 hours in ambient air.

[2] = test system: S. pneumoniae ASPN001 (Fluoroquinolone-susceptible, ATCC49619); details: Table 2
Method: as §1

[3] = test system: P. aeruginosa APAE054 (Fluoroquinolone-resistant); details: Table 2
Method: as §1

[4] = test system: E. coli AECO001 (Fluoroquinolone susceptible, ATCC25922); details: Table 2, 35° C., 20 hours
Method: as §1

[5] = test system: P. aeruginosa APAE001 (Fluoroquinolone-susceptible, ATCC27853); details: Table 2
Method: as §1

[6] = test system: S. pneumoniae ASPN1027 (Fluoroquinolone-resistant); details: Table 2
Method: as §1

[7] = test system: S. aureus ASAU1031 (Fluoroquinolone-resistant); details: Table 2
Method: as §1

[8] = test system: S. aureus ASAU001 (Fluoroquinolone-susceptible, ATCC29213); details: Table 2
Method: as §1

[9] = test system: E. coli AECO066 (Fluoroquinolone-resistant); details: Table 2
Method: as §1

[10] = test system: A. baumannii AABA1065 (Fluoroquinolone-susceptible); details: Table 2
Method: as §1

O=C(O)c1cn(C2CC2)c2c3c(c(F)cc2c1=O)N1CCCC1CSC3 (stereo not drawn) [8/10, 13-Cyclopropyl-8-fluoro-10-oxo-3a,4,5,6,10,13-hexahydro-1H,3H-pyrrolo[2′,1′:3,4][1,4]thiazepino[5,6-h]quinoline-11-carboxylic acid]
MIC AABA 1009 [1]: C (MIC's of greater than 8.0 μg/mL = C) | MIC ASPN 001 [2]: C (MIC's of greater than 8.0 μg/mL = C) | MIC APAE 054 [3]: C (MIC's of greater than 8.0 μg/mL = C) | MIC AECO 001 [4]: B (MIC's of greater than 1.0 μg/mL to 8.0 μg/mL = B) | MIC APAE 001 [5]: C (MIC's of greater than 8.0 μg/mL = C) | MIC ASPN 1027 [6]: C (MIC's of greater than 8.0 μg/mL = C) | MIC ASAU 1031 [7]: C (MIC's of greater than 8.0 μg/mL = C) | MIC ASAU 001 [8]: A (MIC's of 1.0 μg/mL or less = A) | MIC AECO 066 [9]: C (MIC's of greater than 8.0 μg/mL = C) | MIC AABA 1065 [10]: B (MIC's of greater than 1.0 μg/mL to 8.0 μg/mL = B)

O=C(O)c1cn(C2CC2)c2c3c(c(F)cc2c1=O)N1CCCC1CS(=O)(=O)C3 (stereo not drawn) [8/12, 13-Cyclopropyl-8-fluoro-10-oxo-3a,4,5,6,10,13-hexahydro-1H,3H-pyrrolo[2′,1′:3,4][1,4]thiazepino[5,6-h]quinoline-11-carboxylic acid 2,2-dioxide]
MIC AABA 1009 [1]: C (MIC's of greater than 8.0 μg/mL = C) | MIC ASPN 001 [2]: C (MIC's of greater than 8.0 μg/mL = C) | MIC APAE 054 [3]: C (MIC's of greater than 8.0 μg/mL = C) | MIC AECO 001 [4]: C (MIC's of greater than 8.0 μg/mL = C) | MIC APAE 001 [5]: C (MIC's of greater than 8.0 μg/mL = C) | MIC ASPN 1027 [6]: C (MIC's of greater than 8.0 μg/mL = C) | MIC ASAU 1031 [7]: C (MIC's of greater than 8.0 μg/mL = C) | MIC ASAU 001 [8]: B (MIC's of greater than 1.0 μg/mL to 8.0 μg/mL = B) | MIC AECO 066 [9]: C (MIC's of greater than 8.0 μg/mL = C) | MIC AABA 1065 [10]: C (MIC's of greater than 8.0 μg/mL = C)

O=C(O)c1cn(C2CC2)c2c3c(c(F)cc2c1=O)N1CCCC1C[S+]([O-])C3 (stereo not drawn) [8/14, 13-Cyclopropyl-8-fluoro-10-oxo-3a,4,5,6,10,13-hexahydro-1H,3H-pyrrolo[2′,1′:3,4][1,4]thiazepino[5,6-h]quinoline-1′-carboxylic acid 2-oxide]
MIC AABA 1009 [1]: C (MIC's of greater than 8.0 μg/mL = C) | MIC ASPN 001 [2]: C (MIC's of greater than 8.0 μg/mL = C) | MIC APAE 054 [3]: C (MIC's of greater than 8.0 μg/mL = C) | MIC AECO 001 [4]: B (MIC's of greater than 1.0 μg/mL to 8.0 μg/mL = B) | MIC APAE 001 [5]: C (MIC's of greater than 8.0 μg/mL = C) | MIC ASPN 1027 [6]: C (MIC's of greater than 8.0 μg/mL = C) | MIC ASAU 1031 [7]: C (MIC's of greater than 8.0 μg/mL = C) | MIC ASAU 001 [8]: B (MIC's of greater than 1.0 μg/mL to 8.0 μg/mL = B) | MIC AECO 066 [9]: C (MIC's of greater than 8.0 μg/mL = C) | MIC AABA 1065 [10]: B (MIC's of greater than 1.0 μg/mL to 8.0 μg/mL = B)

O=C(O)c1cn(C2CC2)c2c3c(c(F)cc2c1=O)N1CCCC1C(=O)NC3 (stereo not drawn) [10/6, 13-Cyclopropyl-8-fluoro-3,10-dioxo-2,3,3a,4,5,6,10,13-octahydro-1H-pyrrolo[2′,1′:3,4][1,4]diazepino[5,6-h]quinoline-1′-carboxylic acid]
MIC AABA 1009 [1]: C (MIC's of greater than 8.0 μg/mL = C) | MIC ASPN 001 [2]: A (MIC's of 1.0 μg/mL or less = A) | MIC APAE 054 [3]: C (MIC's of greater than 8.0 μg/mL = C) | MIC AECO 001 [4]: A (MIC's of 1.0 μg/mL or less = A) | MIC APAE 001 [5]: B (MIC's of greater than 1.0 μg/mL to 8.0 μg/mL = B) | MIC ASPN 1027 [6]: B (MIC's of greater than 1.0 μg/mL to 8.0 μg/mL = B) | MIC ASAU 1031 [7]: B (MIC's of greater than 1.0 μg/mL to 8.0 μg/mL = B) | MIC ASAU 001 [8]: A (MIC's of 1.0 μg/mL or less = A) | MIC AECO 066 [9]: C (MIC's of greater than 8.0 μg/mL = C) | MIC AABA 1065 [10]: B (MIC's of greater than 1.0 μg/mL to 8.0 μg/mL = B)

O=C(O)c1cn(C2CC2)c2c3c(c(F)cc2c1=O)N1CCCC1COC3 (stereo not drawn) [11/8, 13-Cyclopropyl-8-fluoro-10-oxo-3a,4,5,6,10,13-hexahydro-1H,3H-pyrrolo[2′,1′:3,4][1,4]oxazepino[5,6-h]quinoline-11-carboxylic acid]
MIC AABA 1009 [1]: C (MIC's of greater than 8.0 μg/mL = C) | MIC ASPN 001 [2]: A (MIC's of 1.0 μg/mL or less = A) | MIC APAE 054 [3]: C (MIC's of greater than 8.0 μg/mL = C) | MIC AECO 001 [4]: A (MIC's of 1.0 μg/mL or less = A) | MIC APAE 001 [5]: C (MIC's of greater than 8.0 μg/mL = C) | MIC ASPN 1027 [6]: C (MIC's of greater than 8.0 μg/mL = C) | MIC ASAU 1031 [7]: B (MIC's of greater than 1.0 μg/mL to 8.0 μg/mL = B) | MIC ASAU 001 [8]: A (MIC's of 1.0 μg/mL or less = A) | MIC AECO 066 [9]: C (MIC's of greater than 8.0 μg/mL = C) | MIC AABA 1065 [10]: A (MIC's of 1.0 μg/mL or less = A)

O=C(O)c1cn(C2CC2)c2c3c(c(F)cc2c1=O)N1CCCC1CN=C3 (stereo not drawn) [12/4, 13-Cyclopropyl-8-fluoro-10-oxo-3a,4,5,6,10,13-hexahydro-3H-pyrrolo[2′,1′:3,4][1,4]diazepino[5,6-h]quinoline-11-carboxylic acid]
MIC AABA 1009 [1]: C (MIC's of greater than 8.0 μg/mL = C) | MIC ASPN 001 [2]: B (MIC's of greater than 1.0 μg/mL to 8.0 μg/mL = B) | MIC APAE 054 [3]: C (MIC's of greater than 8.0 μg/mL = C) | MIC AECO 001 [4]: A (MIC's of 1.0 μg/mL or less = A) | MIC APAE 001 [5]: B (MIC's of greater than 1.0 μg/mL to 8.0 μg/mL = B) | MIC ASPN 1027 [6]: C (MIC's of greater than 8.0 μg/mL = C) | MIC ASAU 1031 [7]: C (MIC's of greater than 8.0 μg/mL = C) | MIC ASAU 001 [8]: A (MIC's of 1.0 μg/mL or less = A) | MIC AECO 066 [9]: C (MIC's of greater than 8.0 μg/mL = C) | MIC AABA 1065 [10]: C (MIC's of greater than 8.0 μg/mL = C)

O=C(O)C(F)(F)F.O=C(O)c1cn(C2CC2)c2c3c(c(F)cc2c1=O)N1CCCC1CNC3 (stereo not drawn) [13/5, 13-Cyclopropyl-8-fluoro-10-oxo-2,3,3a,4,5,6,10,13-octahydro-1H-pyrrolo[2′,1′:3,4][1,4]diazepino[5,6-h]quinoline-11-carboxylic acid trifluoroacetate]
MIC AABA 1009 [1]: C (MIC's of greater than 8.0 μg/mL = C) | MIC ASPN 001 [2]: B (MIC's of greater than 1.0 μg/mL to 8.0 μg/mL = B) | MIC APAE 054 [3]: C (MIC's of greater than 8.0 μg/mL = C) | MIC AECO 001 [4]: A (MIC's of 1.0 μg/mL or less = A) | MIC APAE 001 [5]: B (MIC's of greater than 1.0 μg/mL to 8.0 μg/mL = B) | MIC ASPN 1027 [6]: C (MIC's of greater than 8.0 μg/mL = C) | MIC ASAU 1031 [7]: C (MIC's of greater than 8.0 μg/mL = C) | MIC ASAU 001 [8]: A (MIC's of 1.0 μg/mL or less = A) | MIC AECO 066 [9]: C (MIC's of greater than 8.0 μg/mL = C) | MIC AABA 1065 [10]: A (MIC's of 1.0 μg/mL or less = A)

CC(=O)N1Cc2c(c(F)cc3c(=O)c(C(=O)O)cn(C4CC4)c23)N2CCCC2C1 (stereo not drawn) [14/4, 2-Acetyl-13-cyclopropyl-8-fluoro-10-oxo-2,3,3a,4,5,6,10,13-octahydro-1H-pyrrolo[2′,1′:3,4][1,4]diazepino[5,6-h]quinoline-11-carboxylic acid]
MIC AABA 1009 [1]: C (MIC's of greater than 8.0 μg/mL = C) | MIC ASPN 001 [2]: C (MIC's of greater than 8.0 μg/mL = C) | MIC APAE 054 [3]: C (MIC's of greater than 8.0 μg/mL = C) | MIC AECO 001 [4]: B (MIC's of greater than 1.0 μg/mL to 8.0 μg/mL = B) | MIC APAE 001 [5]: C (MIC's of greater than 8.0 μg/mL = C) | MIC ASPN 1027 [6]: C (MIC's of greater than 8.0 μg/mL = C) | MIC ASAU 1031 [7]: C (MIC's of greater than 8.0 μg/mL = C) | MIC ASAU 001 [8]: C (MIC's of greater than 8.0 μg/mL = C) | MIC AECO 066 [9]: C (MIC's of greater than 8.0 μg/mL = C) | MIC AABA 1065 [10]: C (MIC's of greater than 8.0 μg/mL = C)

CN1Cc2c(c(F)cc3c(=O)c(C(=O)O)cn(C4CC4)c23)N2CCCC2C1.O=C(O)C(F)(F)F (stereo not drawn) [15/3, 13-Cyclopropyl-8-fluoro-2-methyl-10-oxo-2,3,3a,4,5,6,10,13-octahydro-1H-pyrrolo[2′,1′:3,4][1,4]diazepino[5,6-h]quinoline-11-carboxylic acid trifluoroacetate]
MIC AABA 1009 [1]: C (MIC's of greater than 8.0 μg/mL = C) | MIC ASPN 001 [2]: B (MIC's of greater than 1.0 μg/mL to 8.0 μg/mL = B) | MIC APAE 054 [3]: C (MIC's of greater than 8.0 μg/mL = C) | MIC AECO 001 [4]: A (MIC's of 1.0 μg/mL or less = A) | MIC APAE 001 [5]: C (MIC's of greater than 8.0 μg/mL = C) | MIC ASPN 1027 [6]: C (MIC's of greater than 8.0 μg/mL = C) | MIC ASAU 1031 [7]: C (MIC's of greater than 8.0 μg/mL = C) | MIC ASAU 001 [8]: A (MIC's of 1.0 μg/mL or less = A) | MIC AECO 066 [9]: C (MIC's of greater than 8.0 μg/mL = C) | MIC AABA 1065 [10]: A (MIC's of 1.0 μg/mL or less = A)

From patent US20120058989A1, “ANTIBACTERIAL FLUOROQUINOLONE ANALOGS” (Achaogen, Inc., priority 2008, published 2012)
